From US4169941A, “Derivatives of XK-88-5 and process for the production thereof” (Abbott Laboratories, priority 1976, dated 1979)
Converted amounts (≈) assume the structure as drawn. Read-outs that look alike come from different tables or passages of the source.

Columns and labels:
[1] = test system: various Gram-positive and Gram-negative bacteria; settings: in words; parent antibiotic, background; cited from earlier work
[2] = test system: Salmonella typhosa KY 4278; assay: MIC, agar dilution method (pH 8.0); assay type: cell-based; settings: Salmonella enterica, pH 8, read-out: minimum inhibitory concentration (MIC)
Description: (§1) The following Table 1 illustrates minimum inhibitory concentrations (MIC) of 2"-N-formyl-XK-88-5 against various Gram-positive and Gram-negative bacteria determined by agar dilution method (pH 8.0).

Vibrio percolans KY 4174 = assay: MIC, agar dilution method (pH 8.0); assay type: cell-based; settings: Comamonas terrigena, KY4174, read-out: minimum inhibitory concentration (MIC)
Description: as §1

[3] = test system: Staphylococcus aureus Ky 4279; assay: MIC, agar dilution method (pH 8.0); assay type: cell-based; settings: KY4279, read-out: minimum inhibitory concentration (MIC)
Description: as §1

Escherichia coli KY 4271 = assay: MIC, agar dilution method (pH 8.0); assay type: cell-based; settings: KY4271, read-out: minimum inhibitory concentration (MIC)
Description: as §1

Erwinia aroideae KY 3241 = assay: MIC, agar dilution method (pH 8.0); assay type: cell-based; settings: Pectobacterium carotovorum, KY3241, read-out: minimum inhibitory concentration (MIC)
Description: as §1

[4] = test system: Klebsiella pheumoniae KY 4275; assay: MIC, agar dilution method (pH 8.0); assay type: cell-based; settings: KY4275, read-out: minimum inhibitory concentration (MIC)
Description: as §1

Proteus vulgaris KY 4277 = assay: MIC, agar dilution method (pH 8.0); assay type: cell-based; settings: KY4277, read-out: minimum inhibitory concentration (MIC)
Description: as §1

Shigella sonnei KY 4281 = assay: MIC, agar dilution method (pH 8.0); assay type: cell-based; settings: KY4281, read-out: minimum inhibitory concentration (MIC)
Description: as §1

[5] = test system: Bacillus subtilis KY 4273; assay: MIC, agar dilution method (pH 8.0); assay type: cell-based; settings: KY4273, read-out: minimum inhibitory concentration (MIC)
Description: as §1

[6] = test system: Pseudomonas alkaligenes KY 4656; assay: MIC, agar dilution method (pH 8.0); assay type: cell-based; settings: KY4656, read-out: minimum inhibitory concentration (MIC)
Description: as §1

[7] = test system: various Gram-positive and Gram-negative bacteria; assay: antibacterial activity (general statement); assay type: cell-based; settings: in words
Description: as §1

Structure (SMILES) | antibacterial activity [1] | MIC [2] | MIC (Vibrio percolans KY 4174) | MIC [3] | MIC (Escherichia coli KY 4271) | MIC (Erwinia aroideae KY 3241) | MIC [4] | MIC (Proteus vulgaris KY 4277) | MIC (Shigella sonnei KY 4281) | MIC [5] | MIC [6] | antibacterial activity [7]
COC1COC(OC2C(N)CC(N)C(OC3OC(CN)CC(O)C3N)C2O)C(N)C1N (stereo not drawn) [XK-88-5] | high antibacterial activity |  |  |  |  |  |  |  |  |  |  | 
COC1COC(OC2C(N)CC(N)C(OC3OC(CN)CC(O)C3N)C2O)C(NC=O)C1N (stereo not drawn) [2"-N-formyl-XK-88-5] |  | 2.5 µg/mL (≈ 5.22 µM) | 10 µg/mL (≈ 20.9 µM) | 0.32 µg/mL (≈ 0.669 µM) | 2.5 µg/mL (≈ 5.22 µM) | 1.25 µg/mL (≈ 2.61 µM) | 0.64 µg/mL (≈ 1.34 µM) | 2.5 µg/mL (≈ 5.22 µM) | 2.5 µg/mL (≈ 5.22 µM) | 0.32 µg/mL (≈ 0.669 µM) | 2.5 µg/mL (≈ 5.22 µM) | strong antibacterial activity
